Laboratory results taken from PubChem BioAssay AID179 (DTP/NCI, 2004).
Values joined by “and” are separate entries in the source; they are usually repeats but may differ in a detail not shown here. Identical values can stand only once. Active and inactive are the calls of the source.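 The calls were made as follows: active = compounds giving half or more protection of infected cells from virus-caused growth loss, again on retest; inactive = the rest.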 *1 amine or outer side, *2 acyl side, *3 side chain or, on linkers, in order; H or OH if unused. Where a SMILES comes first, the peptide text is derived from it. Bridges are numbered along the chain shown (N, C = ends). [ ]: non-standard residue; d: D form. The star is where a group is joined. ξ: configuration not given here. NMeF = CN[C@@H](Cc1ccccc1)C(=O)O; X12 = O=C(C1CCCNN1[*:1])[*:2]; NMeV = CN[C@H](C(=O)O)C(C)C; ξNMeN = CNC(CC(N)=O)C(=O)O; NMeA = CN[C@@H](C)C(=O)O; ξNMeV = CNC(C(=O)O)C(C)C; Boc = CC(C)(C)OC(=O)*; For = O=C*

Test system: CEM cells HIV-1 protection, formazan growth assay
Assay: NCI AIDS Antiviral Assay
Conditions: for IC50: measured here: growth of uninfected CEM cells
In short: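 Human CEM cells, uninfected and HIV-1-infected, exposed to five drug concentrations; growth measured by soluble formazan assay and scored as percent protection from infection, with protecting compounds retested.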

| SMILES | EC50 | IC50 | outcome |
| --- | --- | --- | --- |
| C[C@@H]1C[C@H](O)[C@]2(O)O[C@@H]3C[C@@]4(C=O)[C@@H](CC=C5[C@@H]4CC[C@]4(C)[C@@H](C6=CC(=O)OC6)CC[C@]54O)C[C@H]3O[C@@H]2O1 | > 0.1 µM | 0.0138 µM | – |
| O=c1c(SCc2ccc(F)cc2)c(SCc2ccc(F)cc2)cnn1-c1ccccc1 | > 15.8 µM | > 15.8 µM | – |
| CC(C)CCCC(C)[C@H]1CC[C@H]2[C@@H]3CC[C@H]4C[C@@H](CCC=C(c5cc(Cl)c(OCc6ccc(B7OC(C)(C)C(C)(C)O7)cc6)c(C(=O)OCc6ccc(B7OC(C)(C)C(C)(C)O7)cc6)c5)c5cc(Cl)c(OCc6ccc(B7OC(C)(C)C(C)(C)O7)cc6)c(C(=O)OCc6ccc(B7OC(C)(C)C(C)(C)O7)cc6)c5)CC[C@]4(C)[C@H]3CC[C@]12C (stereo not given in full) | > 200 µM | > 200 µM | – |
| CN1C(c2ccccc2)N1C (stereo not given) | > 1700 µM | > 1700 µM | – |
| N#Cc1ccccc1OCCOc1ccccc1C#N | > 200 µM | > 200 µM | – |
| O=C(NCCO)c1cc2c(cn1)[nH]c1ccccc12 | – | – | inactive |
| Cc1cccc(C)c1NC(=O)CCc1nc(=S)[nH][nH]1 | > 468 µM | > 468 µM | – |
| COc1cccc([C@@]2(O)c3c(ccc(O)c3OC)[C@H]2OC)c1OC | > 15.8 µM | > 15.8 µM | – |
| Cc1ccc(S(=O)(=O)N(CC(=O)O)c2ccccc2)cc1 | – | – | inactive |
| C=CC(C1=CC(=O)C(OC)=CC1=O)c1ccccc1 (stereo not given) | – | – | inactive |
| CC(=O)CC(=O)Nc1c(C)[c]([Hg][O]C(C)=O)c(C)[c]([Hg][O]C(C)=O)[c]1[Hg][O]C(C)=O | > 1.48 µM | > 1.48 µM | – |
| Nc1ccn([C@H]2CO[C@@H](CO)[C@@H]2O)c(=O)n1 | > 200 µM | > 200 µM | – |
| COC(=O)c1c(C(=O)OC)c2ccccn2c1-c1cc(C)cc2c1C(=O)C=CC2=O | > 200 µM | 0.468 µM | – |
| CC(=O)c1ccc(NC(=S)NN)cc1 | > 174 µM | 148 µM | inactive |
| C[C@@H](NC(=O)[C@@H]1C[C@]1(C)CO)c1cccc2ccccc12 | > 200 µM | > 200 µM | – |
| O=C1Cc2c(-c3cccs3)cc(-c3ccccc3)nc2-c2ccccc2N1 | > 200 µM | 46.8 µM | – |
| CC(C)(C)N=c1n(C(C)(C)C)oc(=O)n1-c1ccccc1 | > 50.1 µM | > 50.1 µM | – |
| Ic1cc2c(cc1C1SCCCS1)OCO2 | > 251 µM | > 251 µM | – |
| [O-]/N=N\c1on[n+](CCc2ccccc2)c1Cc1c(/N=N/[O-])on[n+]1CCc1ccccc1 | – | – | inactive |
| NC(=O)c1ncn2c(=O)n(CCCl)nnc12 | > 1020 µM | 24.5 µM | – |
| O=C1CCCCC/C1=C\c1cccc(F)c1 | > 200 µM | > 100 µM | – |
| O=C(O)c1ccccc1-c1c2cc(Br)c(=O)c(Br)c-2oc2c(Br)c(O)c(Br)cc12 | > 200 µM | 21.9 µM and 35.5 µM | – |
| CCCCCCCCCCCCCCCCOP(=O)(O)OP(=O)(O)OCC1OC(n2ccc(N)nc2=O)C(O)C1O (stereo not given) | 174 µM and > 100 µM | – | – |
| CC/C=C\C/C=C\C1CC(=O)NCCCNCCCCN1 (stereo not given) | – | – | inactive |
| COc1ccc(-n2[nH]nc(C(N)=O)c2=O)cc1 | > 200 µM | > 200 µM | – |
| CC(C)(C)c1cc2c(OC/C=C/c3ccccc3)c(c1)Cc1cc(C(C#N)(OC/C=C/c3ccccc3)OC/C=C/c3ccccc3)cc(c1OC/C=C\c1ccccc1)Cc1cc(C(C)(C)C)cc(c1OC/C=C/c1ccccc1)Cc1cc(C(C#N)(OC/C=C\c3ccccc3)OC/C=C/c3ccccc3)cc(c1OC/C=C\c1ccccc1)C2 (stereo not given) | > 100 µM | > 100 µM | – |
| C=C1C2CC[C@H]3C45CO[C@@](O)(C(O)[C@@H]4C(C)(C)C=CC5=O)C3(C2)C1OC(C)=O (stereo not given in full) | > 339 µM | 23.4 µM | – |

| SMILES | EC50 | IC50 | outcome |
| --- | --- | --- | --- |
| O=c1sc2ccccc2c2c1C=CCO2 | > 46.8 µM | > 46.8 µM | – |
| COc1cc(O)c2c(=O)c3c(C)cccc3n(C)c2c1 | > 200 µM | 72.4 µM | – |
| Cc1csc(N2C(=O)c3cccc4cccc(c34)C2=O)n1 | > 200 µM | 64.6 µM | – |
| C=CCC(CCC(CC=C)C(=O)O)C(=O)O (stereo not given) | > 1100 µM | > 1100 µM | – |
| COC(=O)/C=C(\C(=O)OC)c1cc(C)c2cc(C(C)C)ccc(C)c1-2 | > 200 µM | 28.2 µM | – |
| C[N+](C)(C)CC1CCCc2ccccc2C1=O (stereo not given) | – | – | inactive |
| CCC(C)C(NC=O)C(=O)NC1C(=O)NC(CC(C)C)C(=O)NC(C(C)C)C(=O)N2NCCCC2C(=O)NC(CC(C)C)C(=O)N2NCCCC2C(=O)OC1C (stereo not given) (For-ITLV[X12]L[X12]; ester 2-C; configuration not given here) | > 45.7 µM | 25.1 µM | – |
| C=C1C(=O)C23OC2C1CCC(=O)C1(C)CC[C@H](OC(C)=O)C(C)(C)[C@H]1CC3O (stereo not given in full) | > 200 µM | 1.2 µM | – |
| CCCCCCCC(=O)OCC1OC(n2cc(F)c(=O)[nH]c2=O)C(NC(=O)OCc2ccccc2)C(O)C1O (stereo not given) | > 64.6 µM | 56.2 µM | – |
| C[C@@H]1c2c([nH]c(=O)[nH]c2=O)O[C@@H]1c1ccccc1 | > 200 µM | > 200 µM | – |
| COC1=CC(=O)C(=O)c2ccc(C)nc21 | – | – | inactive |
| COC(=O)[C@H](C)N(C)C(=O)C(CC(N)=O)N(C)C(=O)[C@H](Cc1ccccc1)N(C)C(=O)[C@@H]1CCCN1C(=O)[C@H](C(C)C)N(C)C(=O)C(C(C)C)N(C)C(=O)[C@@H](NC(=O)OC(C)(C)C)C(C)C (stereo not given in full) (Boc-V[ξNMeV][NMeV]P[NMeF][ξNMeN][NMeA]-OMe) | > 53.7 µM | 50.1 µM | – |
| CCOP(=O)(OCC)/C(C#N)=C/c1ccc(-c2ccc(F)cc2F)o1 | – | – | inactive |
| CSc1nc2c(nc(C)c(=O)n2C2OCC(OC(C)=O)C(OC(C)=O)C2OC(C)=O)c(=O)[nH]1 (stereo not given) | > 513 µM | > 513 µM | – |
| Nc1c(N2CCOCC2)c(=O)nc2[nH]/c(=C\c3ccccc3O)c(=O)n12 | > 200 µM | 97.7 µM | – |
| COc1c(Br)cc(/C=C(\C#N)c2cccnc2)cc1Br | > 200 µM | 25.1 µM | – |
| Cn1c(CCN=C(N)CSS(=O)(=O)O)nc2ccccc21 | > 200 µM | 174 µM | – |
| NS(=O)(=O)c1ccc(NC(=S)/N=C/c2c(O)c3ccccc3oc2=O)cc1 | > 200 µM | 110 µM | – |
| Cc1cccc[c]1[Sb](=[O])([OH])[OH] | – | – | active |
| CCCCc1c2c(nc3c1CCc1cc4cc5c(nc4nc1-3)-c1nc3c(c(CCCC)c1CC5)CCCC3=O)C(=O)CCC2 | > 100 µM | 0.457 µM | – |
| CCN(CC)CC(C)C(O)(c1ccc(Cl)cc1)C1CCCCC1 (stereo not given) | > 200 µM | 13.2 µM | – |
| O=C(O)c1cc2ccccc2c(N=Nc2ccc(S(=O)(=O)Nc3nccs3)cc2)c1O | > 200 µM | 155 µM | – |
| COc1nc2sc3c(c2c(=O)n1CCCSSCCCn1c(OC)nc2sc4c(c2c1=O)CCCC4)CCCC3 | > 100 µM | > 100 µM | – |
| CCCCCCCCCCNP(=S)(NCCCCCCCCCC)c1ccccc1 | – | – | inactive |
| CC1Cc2c(cc(N)nc2Br)NC1=O (stereo not given) | > 200 µM | 95.5 µM | – |
| CCCCc1ccc(Nc2nc(Cl)c3ncn(C4CC(Oc5ccc(C)cc5)C(COc5ccc(C)cc5)O4)c3n2)cc1 (stereo not given) | > 200 µM | > 200 µM | – |
| O=C(O)Cc1sc(=O)[nH]c1O | > 200 µM | > 200 µM | – |

| SMILES | EC50 | IC50 | outcome |
| --- | --- | --- | --- |
| Cc1c(O)c2ccccc2[nH]c1=O | > 200 µM | > 200 µM | – |
| CC1OC([C@]2(C)O[C@@H]([C@@]3(C)OC=CC3=O)CC2=O)CC1=O (stereo not given in full) | – | – | inactive |
| CC1=CC2CC(C)=C(CC[C@]3(C)CC[C@H]([C@@H](C)C(=O)O)OO3)C(C)(C)C2CC1 (stereo not given in full) | – | – | inactive |
| Fc1cccc(C2ON=C(c3ccccc3)N2C23CC4CC(CC(C4)C2)C3)c1 (stereo not given) | > 200 µM | > 200 µM | – |
| Cc1ccc(NC(=O)C2C(=O)N(c3ccc(C)c(C)c3)C(=O)/C2=N\NC(N)=O)cc1C (stereo not given) | – | – | inactive |
| COC(=O)C1(OC(=O)Sc2ccccc2)CCN(C)CC1 | > 200 µM | 26.3 µM | – |
| Cc1cccc(NC(=S)Nc2ccc(Cl)cc2)n1 | > 200 µM | > 200 µM | – |
| O=c1[nH]c(=O)c2c([nH]1)[nH]c1ccccc12 | > 200 µM | > 200 µM | – |
| CC(C)(C)c1ccc(CN2CCN(C(c3ccccc3)c3ccc(Cl)cc3)CC2)cc1 (stereo not given) | > 200 µM | 115 µM | – |
| CCOC(=O)C1=C(C)NC(CO)=C(C(=O)OCC)C1c1cccc([N+](=O)[O-])c1 (stereo not given) | > 2 µM | 0.355 µM | – |
| Nc1ccc(Nc2nc(F)nc(-c3c4ccccc4c4n3CCS4)n2)cc1 | > 7.24 µM | 3.63 µM | – |
| CN(C1=NCCO1)c1cccc2c1CCCC2 | > 200 µM | 4.47 µM | – |
| CCOC(=O)C(NC(C)=O)[CH](c1ccc(OC)cc1)[Sn]([c]1ccccc1)([c]1ccccc1)[c]1ccccc1 (stereo not given) | > 200 µM | 1.07 µM | – |
| C[C@@H]1C[C@H]2[C@@H]3CCC4=CC(=O)C=C[C@]4(C)[C@@]3(F)[C@@H](O)C[C@]2(C)[C@H]1O | – | – | inactive |
| O=C(C(=Cc1ccccc1)C(=O)c1ccccc1)c1ccccc1 | > 43.7 µM | 14.5 µM | – |
| O=c1c(Sc2c(O)c3ccccc3c3ccccc3c2=O)c(O)c2ccccc2c2ccccc12 | – | – | inactive |
| COc1ccc2c(c1)Oc1cc(O)ccc1[C@@H]2c1ccccc1C(=O)NC(C)c1ccccc1 (stereo not given in full) | > 15.8 µM | 14.5 µM | – |
| Cc1cc(N=Nc2ccc([N+](=O)[O-])cc2)c(NCC(O)C(O)C(O)CO)cc1C (stereo not given) | > 200 µM | 34.7 µM | – |
| NC(=O)N/N=C1\CCc2ccccc2C1 | > 93.3 µM | > 93.3 µM | – |
| CSc1n[nH]c(N)c1C(=O)Nc1ccc(C)cc1 | > 200 µM | 95.5 µM | – |
| COc1cc(/C=N/Nc2nnc3c4ccccc4c4ncccc4c3n2)cc(OC)c1OC | > 100 µM | 57.5 µM | – |
| O=c1cc(O)c2ccc(O)cc2o1 | > 40.7 µM | > 40.7 µM | – |
| CC1=CC2(C)C=C(C)C3(OC(c4ccccc4)=C(C#N)C3=N2)C1=O (stereo not given) | > 70.8 µM | 34.7 µM | – |
| CC(/C=C/c1ccc(N(C)C)cc1)=N\NC(=S)NCC(C)C | > 200 µM | 29.5 µM | – |
| COC(=O)c1cc(C(=CCCBr)c2cc(Cl)c(OC)c(C(=O)OC)c2)cc(Cl)c1OC | 16.6 µM | 21.9 µM | – |
| CC(C)(C)C1C2N1C1(c3ccccc3)OC2(c2ccccc2)c2ccccc21 (stereo not given) | > 10.2 µM | > 10.2 µM | – |
